Data set [1] has as its system parentally fed, hyperglycemic, burn-injured rabbits. An excerpt: Our research group previously developed an animal model of critical illness that has shown to mimic the dynamic endocrine, immunological and metabolic changes characteristic of human critical illness. In this animal model we investigated the effect of critical illness on spermidine levels and the effects of spermidine-administration during critical illness on survival, organ function (clinical, biochemical, and cyto/histopathological effects), and on metabolic, inflammatory/immunological and cellular pathways. Animals were treated according to the “Principals of Laboratory Animal Care” formulated by the U.S. National Society for Medical Research and the “Guide for the Care and Use of Laboratory Animals” prepared by the National Institutes of Health. The protocol was approved by the K.U. Leuven Ethical Review Board for Animal Research. Adult male New Zealand White rabbits, weighing approximately 3 kg, were purchased from a local rabbitry, were housed individually with free access to water, hay and regular rabbit chow, and were exposed to artificial light for 14 h per day. This animal model of prolonged critical illness mimics the human condition (Weekers et al. (2003) Endocrinol 144, 5329-5338). Indeed, the critically ill animals undergo the same metabolic, immunological and endocrine disturbances and development of organ failure and muscle wasting as the human counterpart.
In our animal model, critical illness was induced by placing intravascular catheters, selectively destroying pancreatic β-cells by alloxan, followed by burn injury. […] The administration of alloxan was necessary to control both blood glucose and plasma insulin levels independently. The application of the burn wound is done 48 hours after alloxan-injection, at which time alloxan has done irreversible damage to the β-cells (selective β-cell necrosis, phase 4 after alloxan-injection). After imposing a burn wound, animals were brought to […], because this reflects most the human situation of critical illness. Non-injured, healthy rabbits served as control.
The effects of spermidine administration were investigated in parentally fed, hyperglycemic, burn-injured rabbits. The rabbits were purchased from a local rabbitry and weighed approximately 3-3.5 kg. The burn injury experiments were performed analoguous to those described above. After imposing the burn wound, animals received a continuous infusion of saline or spermidine (low dose ranging from 0.3-3 mg/day or high dose ranging from 30-300 mg/day).
At 09:00±1 h of […] (FIG. 3) animals were weighed, and under general anesthesia (30 mg/kg ketamine i.m. [Imalgene 1000; Merial, Lyon, France]; 0.15 ml/kg medetomidine i.m. [Orion, Espoo, Finland]), an ice-cold 10% solution of alloxan-monohydrate (150 mg/kg; Alloxan; Sigma-Aldrich, Bornem, Belgium) was injected slowly via a marginal ear vein. Afterward, the animals had free access to regular rabbit chow, hay and drinking water enriched with glucose to face alloxan-induced acute hypoglycemia.
At 10:00±1 h of Day 0 (FIG. 3), glycemia was measured to confirm hyperglycemia after alloxan (irreversible phase 4 after alloxan-injection). When glycemia exceeded 300 mg/dl, animals were considered eligible for the study. Under general anesthesia (see above), supplemented with 1.5 volume % isoflurane (Isoba Vet.; Schering-Plough, Brussels, Belgium) inhalation, animals were shaved and catheters were placed into the right jugular vein for intravenous infusion (4F; Vygon, Ecouen, France) and into the right carotid artery for blood sampling (5 Ch; Sherwood Medical, Tullamore, Ireland). A paravertebral block (5 ml Xylocaine 1%; Astra Zeneca, Brussels, Belgium) was performed and a full thickness burn injury of 20% body-surface area was imposed. Animals were then fitted to a homemade jacket to secure catheters and immediately returned to their cages.

For the next data set, the system named is critically ill rabbits. The data set can be described thus: Toxicity of spermidine, sequential up-down allocation. It is filed as in vivo, rabbit. The method, then: The toxicity of spermidine was assessed using a sequential up-down allocation technique. The administered dose of spermidine was determined by the response of the previous animal to a higher or lower dose (with incremental/decremental steps per 300 mg/d; minimum dose 600 mg/d). When the animal survived until day 4, this was considered as absence of acute toxicity. Mortality during the first 3 days was considered as acute toxicity. When there was no acute toxic effect, the next included animal would receive 300 mg spermidine/day more. When there was an acute toxic effect, the next included animal would receive 300 mg/day less (until the starting dose as a minimum). […] The protocol was otherwise similar as in the experiments described previously.

In another data set the test system is autophagy. Put plainly: Yeast autophagy measurements. It is filed as cell-based. An excerpt:
Autophagy was monitored either by vacuolar localization of Atg8p using fluorescence microscopy of cells expressing an EGFP-Atg8 fusion protein (T. Kirisako et al. (1999) J Cell Biol 147, 435-446.) or by alkaline phosphatase (ALP) activity according to Kissova et al. (Kissova at al. (2004) J Biol Chem 279, 39068-39074) using BY4741 wild type strain transformed with and selected for stable insertion of pTN9 HindIII fragment (confirmed by PCR). In order to correct for intrinsic (background) ALP activity, BY4741 (without pTN9) have been simultaneously processed and ALP activity subtracted. For generation of EGFP-ATG8 constructs see section on Molecular Biology.

The test system of data set [2] is chronologically aged yeast cultures. Put plainly: Oxygen consumption and fractionation of upper and lower (quiescent) cells. It is filed as cell-based. On the procedure: Oxygen consumption was directly determined in 1.7 ml of chronologically aged yeast cultures transferred to a recording chamber by measuring the decline of oxygen concentration under anaerobic conditions using an oxygen electrode. Slopes were calculated over 15 min within the linear decrease of oxygen (minute 2-17) and normalized to living cells as determined by plating on YEPD agar plates.
Cells were cultured in SCD media as described in section on “Yeast Strains and Molecular Biology”. Percoll density gradient centrifugation was performed according to Allen et al. (Allen et al. (2006) J Cell Biol 174, 89-100). Cell counts for each fraction were determined using a CASY cell counter (Innovatis).

Data set [3] concerns chronologically aging wild type yeast cells. The data set can be described thus: Spontaneous mutation frequency and budding index. Particulars: spermidine-treated cultures, 4 mM. It is filed as cell-based. The method, then:
Spontaneous mutation frequency was determined based on the appearance of mutants able to form colonies on agar plates containing 60 mg/l L-canavanine sulfate according to Fabrizio et al. (Fabrizio et al. (2004) J Cell Biol 166, 1055-1067). Mutation rates were calculated per 10^6 living (colony forming on YEPD) cells. Budding index was assessed by counting the percentage of budded cells after 10 seconds of sonication on ice using Sonifier 250 from Benson (Duty Cycle: 35; Output Control: 2.5) in micrographs of no more than 40 cells. For each sample, at least 500 cells were evaluated.

The mark [4] stands for this setting: preliminary results, spermidine versus saline.

The structures appear in SMILES notation. Like-named read-outs stand apart in the source and are kept apart here.

With `NCCCCNCCCN` [spermidine], the mortality in data set [1] (0.3 to 3 mg spermidine per day (groups D, E; 2 groups of 7 animals)) worked out at 28%; in data set [1] (30 to 300 mg spermidine per day (groups A, B, C; 3 groups of 8 animals)) it was 12.5%. In data set [1] (already seen with doses of 1-200 mg spermidine per kg per day), the “plasma and tissue levels of spermidine” value is “could restore both plasma and tissue levels of spermidine”. Further, the survival rate entry in data set [1] (benefit most pronounced for the higher doses) is “marked improved survival rate”. The “AST levels (marker of liver dysfunction)” value in data set [1] (days following the initial hit) is “rapid and profound decrease in AST-levels”. For the same molecule, the “rise in plasma creatinine (marker of kidney function)” value in data set [1] (high dose 30-300 mg/day, low dose 0.3-3 mg/day) is reported as “could be prevented”. Moreover, the plasma spermidine concentration entry in data set [1] (higher doses 30-300 mg/day) was “maintained or increased the plasma spermidine to (supra)normal values”; in data set [1] (low doses 0.3-3 mg/day), “minimal or no effect”. For the same molecule, the “mortality of the animals (in words)” value in data set [1] (higher doses 30-300 mg/day/rabbit) and in data set [1] (low doses 0.3-3 mg/day/rabbit) was “reduce the mortality” in each case. The kidney protection entry in data set [1] (low doses of spermidine) is “renoprotection”. The “autophagy (key proteins)” value in data set [1] (setting [4]) was “stimulation of autophagy”. For the same molecule, the mitochondrial function entry in data set [1] (setting [4]) was “improvement of mitochondrial function”. Besides, the “rise in ureum (marker of kidney dysfunction and muscle wasting)” value in data set [1] (spermidine infusion) is given as “could also be prevented”. Besides, the “blood pH and lactate levels during illness” value in data set [1] (spermidine infusion versus saline) is “maintain a normal pH and normal lactate levels”. For the same molecule, in the data set with critically ill rabbits (continuous infusion of approximately 600 mg/day, both of two animals), the “time of death after starting the spermidine infusion” value stood at 28 h. For the same molecule, the “dose without acute toxic effects” value was 300 mg/day with critically ill rabbits (half of the toxic dose, highest dose of the pilot study) and “approximately 100 mg/kg/day” with critically ill rabbits (per kg body weight). Moreover, the “dose with acute toxic effects” value in the data set with critically ill rabbits (mortality during the first 3 days) is 600 mg/day; with critically ill rabbits (per kg body weight), “approx 200 mg/kg/day”. Besides, in the data set with autophagy, the autophagy result is recorded as “strongly induces autophagy”. Also, the oxygen consumption result in data set [2] (day 20, 4 mM spermidine) is “reduced their oxygen consumption”. In addition, the “quiescence status (upper and lower cell fractions)” value in data set [2] (gradient separation, 4 mM spermidine) is “resemble the status of quiescence”. In data set [3], the “mutation frequency and budding index” value is listed as “neither associated with an increased mutation frequency nor a higher budding index”.

(Values after patent US20120015901A1, “METHODS AND PREPARATIONS FOR PROTECTING CRITICALLY ILL PATIENTS” (priority 2009, published 2012).)
